In experiment [1] the target is Bifunctional 3'-5' exonuclease/ATP-dependent helicase WRN (Homo sapiens, UniProt Q14191). Briefly: ADP-Glo Kinase Assay. As for the experimental part:
ATPase activity was measured using the ADP-Glo Kinase Assay following the manufacturers recommended protocol.
In general terms: ADP-Glo turns the ADP formed in a reaction into a luminescent signal.

Experiment [2] addresses T1, Bifunctional 3'-5' exonuclease/ATP-dependent helicase WRN [480-1251] (UniProt Q14191).
T1 construct: 480-1251
Kind of experiment: Biochemical Activity Assays. As for the experimental part:
The pure fractions were pooled and desalted/buffer exchanged into storage buffer using a HiTrap desalting column. […] First, WRN alone was pre-incubated with DMSO or compound of interest for 15 minutes. To initiate the reaction, ATP, dsDNA substrate, and ssDNA competitor (ssDNA_comp: […]) were added and incubated at room temperature for 20 minutes at which point DNA unwinding activity was monitored by measuring Cy3 fluorescence. After obtaining the reading, the ATPase activity was measured using the ADP-Glo Kinase Assay following the manufacturers recommended protocol. […] Compounds were assayed in a 10-point dose response in duplicate at a 1% DMSO final assay concentration.

Each structure is given as a SMILES string.

The IC50 is the concentration needed to halve the response being measured.

T1 sequence (Q14191 480-1251): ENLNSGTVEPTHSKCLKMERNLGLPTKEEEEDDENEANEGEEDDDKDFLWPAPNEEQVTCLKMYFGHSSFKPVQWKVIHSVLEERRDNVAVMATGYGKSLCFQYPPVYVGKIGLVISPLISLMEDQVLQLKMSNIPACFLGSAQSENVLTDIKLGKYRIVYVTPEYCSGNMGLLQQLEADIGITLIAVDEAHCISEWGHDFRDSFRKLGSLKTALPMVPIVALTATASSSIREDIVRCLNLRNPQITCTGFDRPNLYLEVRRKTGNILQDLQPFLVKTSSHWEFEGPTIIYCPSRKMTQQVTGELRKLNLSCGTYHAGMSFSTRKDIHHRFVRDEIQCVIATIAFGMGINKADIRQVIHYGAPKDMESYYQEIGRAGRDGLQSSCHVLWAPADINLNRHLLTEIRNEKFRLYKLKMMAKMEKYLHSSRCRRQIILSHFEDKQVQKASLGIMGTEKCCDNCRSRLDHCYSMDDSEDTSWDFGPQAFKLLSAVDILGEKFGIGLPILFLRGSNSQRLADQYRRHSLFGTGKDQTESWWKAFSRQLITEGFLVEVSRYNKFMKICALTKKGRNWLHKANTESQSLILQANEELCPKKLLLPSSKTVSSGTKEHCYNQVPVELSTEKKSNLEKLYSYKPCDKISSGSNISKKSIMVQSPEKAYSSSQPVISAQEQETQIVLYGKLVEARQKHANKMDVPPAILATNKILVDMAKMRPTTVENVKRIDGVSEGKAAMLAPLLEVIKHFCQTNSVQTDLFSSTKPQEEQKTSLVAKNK
Sequence of Bifunctional 3'-5' exonuclease/ATP-dependent helicase WRN (Q14191 whole entry): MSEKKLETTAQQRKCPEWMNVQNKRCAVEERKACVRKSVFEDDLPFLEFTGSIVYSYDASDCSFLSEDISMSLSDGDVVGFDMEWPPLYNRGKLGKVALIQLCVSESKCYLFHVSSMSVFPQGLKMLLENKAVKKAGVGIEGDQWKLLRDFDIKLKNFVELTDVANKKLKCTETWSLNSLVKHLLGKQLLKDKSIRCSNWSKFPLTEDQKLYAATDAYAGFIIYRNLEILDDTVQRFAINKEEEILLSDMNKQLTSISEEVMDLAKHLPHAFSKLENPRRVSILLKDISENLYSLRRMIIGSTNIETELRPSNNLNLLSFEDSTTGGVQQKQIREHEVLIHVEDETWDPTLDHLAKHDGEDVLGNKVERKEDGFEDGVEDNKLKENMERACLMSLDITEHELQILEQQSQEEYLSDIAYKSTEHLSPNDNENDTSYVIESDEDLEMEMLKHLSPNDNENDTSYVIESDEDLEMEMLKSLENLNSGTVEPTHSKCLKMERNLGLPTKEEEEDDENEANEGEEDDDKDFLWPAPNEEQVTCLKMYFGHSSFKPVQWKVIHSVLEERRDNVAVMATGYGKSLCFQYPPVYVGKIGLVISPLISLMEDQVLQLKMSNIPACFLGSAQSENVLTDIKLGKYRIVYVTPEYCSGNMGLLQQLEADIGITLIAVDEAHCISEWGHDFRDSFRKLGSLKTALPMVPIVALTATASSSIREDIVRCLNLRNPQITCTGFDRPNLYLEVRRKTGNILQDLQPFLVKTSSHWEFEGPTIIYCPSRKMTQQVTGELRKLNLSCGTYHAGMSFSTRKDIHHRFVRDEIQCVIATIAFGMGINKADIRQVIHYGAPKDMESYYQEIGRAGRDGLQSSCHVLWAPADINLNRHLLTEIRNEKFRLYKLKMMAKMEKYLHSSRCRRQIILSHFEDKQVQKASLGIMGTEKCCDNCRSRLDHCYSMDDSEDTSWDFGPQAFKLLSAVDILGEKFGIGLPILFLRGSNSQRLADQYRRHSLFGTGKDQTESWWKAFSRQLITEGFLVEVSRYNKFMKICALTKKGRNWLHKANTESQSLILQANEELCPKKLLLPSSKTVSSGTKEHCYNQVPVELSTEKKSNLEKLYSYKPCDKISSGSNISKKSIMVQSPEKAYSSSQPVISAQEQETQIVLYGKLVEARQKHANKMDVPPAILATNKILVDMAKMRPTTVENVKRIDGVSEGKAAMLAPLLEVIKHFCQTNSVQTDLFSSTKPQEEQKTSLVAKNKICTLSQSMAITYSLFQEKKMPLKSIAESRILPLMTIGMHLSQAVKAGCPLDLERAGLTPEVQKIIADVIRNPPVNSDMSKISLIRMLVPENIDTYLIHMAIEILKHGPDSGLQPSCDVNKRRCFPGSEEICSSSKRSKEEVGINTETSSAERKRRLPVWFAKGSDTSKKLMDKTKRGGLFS

Consider `CCc1c(N2CCN(C(=O)c3ncnc(C)c3O)CC2)c(=O)n2nc(-c3ccc4c(c3)OCCO4)nc2n1CC(=O)Nc1ccc(C(F)(F)F)cc1Cl` [WO2025049746, Example 1], for which the IC50 was 23.6 nM in experiment [1] and 20.7 nM in experiment [2].

Consider `CCc1c(N2CCN(C(=O)c3ncnc(C)c3O)CC2)c(=O)n2nc(-c3cccc4c3OCCO4)nc2n1CC(=O)Nc1ccc(C(F)(F)F)cc1Cl` [WO2025049746, Example 2], for which the values for the IC50 in experiment [1] and in experiment [2] were 27.1 nM and 18.7 nM, respectively.

With `CCc1c(N2CCN(C(=O)c3ncnc(C)c3O)CC2)c(=O)n2nc(-c3ccc4c(c3)CCOC4)nc2n1CC(=O)Nc1ccc(C(F)(F)F)cc1Cl` [WO2025049746, Example 3], the results for the 50% inhibitory concentration (IC50) in experiment [1] and in experiment [2] were 41.2 nM and 34.4 nM, respectively.

In turn, `CCc1c(N2CCN(C(=O)c3ncnc(C)c3O)CC2)c(=O)n2nc(-c3cccc4c3CCOC4)nc2n1CC(=O)Nc1ccc(C(F)(F)F)cc1Cl` [WO2025049746, Example 4] registered an IC50 in experiment [2] of 66.2 nM.

On to `CCc1c(N2CCN(C(=O)c3ncnc(C)c3O)CC2)c(=O)n2nc(-c3cccc4c3COCC4)nc2n1CC(=O)Nc1ccc(C(F)(F)F)cc1Cl` [WO2025049746, Example 5], for which the values for the IC50 in experiment [1] and in experiment [2] were 86.9 nM and 59.9 nM, respectively.

On to `CCc1c(N2CCN(C(=O)c3ncnc(C)c3O)CC2)c(=O)n2nc(-c3ccc4c(c3)OCO4)nc2n1CC(=O)Nc1ccc(C(F)(F)F)cc1Cl` [WO2025049746, Example 10], for which the IC50 in experiment [1] is 28.5 nM; in experiment [2], 22.1 nM.

For `CCc1c(N2CCN(C(=O)c3ncnc(C)c3O)CC2)c(=O)n2nc(-c3ccc4c(c3)CCO4)nc2n1CC(=O)Nc1ccc(C(F)(F)F)cc1Cl` [WO2025049746, Example 11], the IC50 stood at 27.3 nM in experiment [1] and 24.6 nM in experiment [2].

As to `CCc1c(N2CCN(C(=O)c3ncnc(C)c3O)CC2)c(=O)n2nc(-c3ccc4c(c3)OCC4)nc2n1CC(=O)Nc1ccc(C(F)(F)F)cc1Cl` [WO2025049746, Example 12], the half-inhibitory concentration (IC50) came to 34.9 nM in experiment [1] and 27.9 nM in experiment [2].

With `CCc1c(N2CCN(C(=O)c3ncnc(C)c3O)CC2)c(=O)n2nc(-c3ccc4c(c3)COC4)nc2n1CC(=O)Nc1ccc(C(F)(F)F)cc1Cl` [WO2025049746, Example 13], the IC50 turned out to be 27.3 nM in experiment [1] and 23.5 nM in experiment [2].

For the molecule `CCc1c(N2CCN(C(=O)c3ncnc(C)c3O)CC2)c(=O)n2nc(-c3cnc4c(c3)COC4)nc2n1CC(=O)Nc1ccc(C(F)(F)F)cc1Cl` [WO2025049746, Example 14], the IC50 in experiment [1] came to 39.3 nM; in experiment [2] it was 33.1 nM.

Turning to `CCc1c(N2CCN(C(=O)c3ncnc(C)c3O)CC2)c(=O)n2nc(-c3cccc4c3COC4)nc2n1CC(=O)Nc1ccc(C(F)(F)F)cc1Cl` [WO2025049746, Example 15], the IC50 in experiment [1] came out at 40 nM; in experiment [2], 34.4 nM.

`CCc1c(N2CCN(C(=O)c3ncnc(C)c3O)CC2)c(=O)n2nc(-c3cccc4c3OCO4)nc2n1CC(=O)Nc1ccc(C(F)(F)F)cc1Cl` [WO2025049746, Example 16]: the IC50 in experiment [1] worked out at 24.9 nM; in experiment [2] it was 22.4 nM.

For the molecule `CCc1c(N2CCN(C(=O)c3ncnc(C)c3O)CC2)c(=O)n2nc(-c3cnn4c3COCC4)nc2n1CC(=O)Nc1ccc(C(F)(F)F)cc1Cl` [WO2025049746, Example 20], the IC50 in experiment [1] was 88.6 nM; in experiment [2] it was 53.6 nM.

Consider `CCc1c(N2CCN(C(=O)c3ncnc(C)c3O)CC2)c(=O)n2nc(-c3ccc4oc(C)nc4c3)nc2n1CC(=O)Nc1ccc(C(F)(F)F)cc1Cl` [WO2025049746, Example 21], for which the IC50 was found to be 44.8 nM in experiment [1] and 38.5 nM in experiment [2].

Turning to `CCc1c(N2CCN(C(=O)c3ncnc(C)c3O)CC2)c(=O)n2nc(-c3cccc4c3cnn4C)nc2n1CC(=O)Nc1ccc(C(F)(F)F)cc1Cl` [WO2025049746, Example 22], the results for the IC50 in experiment [1] and in experiment [2] were 37.1 nM and 29.4 nM, respectively.

Consider `CCc1c(N2CCN(C(=O)c3ncnc(C)c3O)CC2)c(=O)n2nc(-c3cccc4nc(C)oc34)nc2n1CC(=O)Nc1ccc(C(F)(F)F)cc1Cl` [WO2025049746, Example 23], for which the IC50 in experiment [1] came out at 43.7 nM; in experiment [2], 30 nM.

On to `CCc1c(N2CCN(C(=O)c3ncnc(C)c3O)CC2)c(=O)n2nc(-c3cncc4c3cnn4C)nc2n1CC(=O)Nc1ccc(C(F)(F)F)cc1Cl` [WO2025049746, Example 24], for which the results for the IC50 in experiment [1] and in experiment [2] were 42.9 nM and 32.9 nM, respectively.

As to `CCc1c(N2CCN(C(=O)c3ncnc(C)c3O)CC2)c(=O)n2nc(N3CCCOCC3)nc2n1CC(=O)Nc1ccc(C(F)(F)F)cc1Cl` [WO2025049746, Example 25], the IC50 came out at 63.9 nM in experiment [1] and 48.8 nM in experiment [2].

Turning to `CCc1c(N2CCN(C(=O)c3ncnc(C)c3O)CC2)c(=O)n2nc(N3CC4(COC4)C3)nc2n1CC(=O)Nc1ccc(C(F)(F)F)cc1Cl` [WO2025049746, Example 26], the half-maximal inhibitory concentration (IC50) in experiment [1] is 76.8 nM; in experiment [2], 62.1 nM.

Consider `CCc1c(N2CCN(C(=O)c3ncnc(C)c3O)CC2)c(=O)n2nc(N3CC(OC)C3)nc2n1CC(=O)Nc1ccc(C(F)(F)F)cc1Cl` [WO2025049746, Example 27], for which the IC50 was determined as 86.3 nM in experiment [1] and 56 nM in experiment [2].

Consider `CCc1c(N2CCN(C(=O)c3ncnc(C)c3O)CC2)c(=O)n2nc(N3CCC3)nc2n1CC(=O)Nc1ccc(C(F)(F)F)cc1Cl` [WO2025049746, Example 28], for which the IC50 in experiment [1] worked out at 90.9 nM; in experiment [2] it was 60.3 nM.

For the molecule `CCc1c(N2CCN(C(=O)c3ncnc(C)c3O)CC2)c(=O)n2nc(N3CCC4(COC4)C3)nc2n1CC(=O)Nc1ccc(C(F)(F)F)cc1Cl` [WO2025049746, Example 29], the values for the IC50 in experiment [1] and in experiment [2] were 73.9 nM and 63.2 nM, respectively.

`CCc1c(N2CCN(C(=O)c3ncnc(C)c3O)CC2)c(=O)n2nc(N(C)C)nc2n1CC(=O)Nc1ccc(C(F)(F)F)cc1Cl` [WO2025049746, Example 30]: the IC50 stood at 53 nM in experiment [1] and 37.2 nM in experiment [2].

As to `CCc1c(N2CCN(C(=O)c3ncnc(C)c3O)CC2)c(=O)n2nc(N3CCCn4nccc43)nc2n1CC(=O)Nc1ccc(C(F)(F)F)cc1Cl` [WO2025049746, Example 31], the half-inhibitory concentration (IC50) stood at 45.2 nM in experiment [1] and 28.9 nM in experiment [2].

Consider `CCc1c(N2CCN(C(=O)c3nc4n(c(=O)c3O)CCOC4)CC2)c(=O)n2nc(C3=CCOCC3)nc2n1CC(=O)Nc1ccc(C(F)(F)F)cc1Cl` [WO2025049746, Example 32], for which the IC50 was determined as 29.7 nM in experiment [1] and 25 nM in experiment [2].

For the molecule `CCc1c(N2CCN(C(=O)c3cn(C)[nH]c3=O)CC2)c(=O)n2nc(C3=CCOCC3)nc2n1CC(=O)Nc1ccc(C(F)(F)F)cc1Cl` [WO2025049746, Example 33], the IC50 came out at 31 nM in experiment [1] and 25.8 nM in experiment [2].

Turning to `CCc1c(N2CCN(C(=O)c3ncccc3N)CC2)c(=O)n2nc(C3=CCOCC3)nc2n1CC(=O)Nc1ccc(C(F)(F)F)cc1Cl` [WO2025049746, Example 34], the IC50 in experiment [1] worked out at 45.1 nM; in experiment [2], 28.5 nM.

As for `CCc1c(N2CCN(C(=O)c3cccc[n+]3[O-])CC2)c(=O)n2nc(C3=CCOCC3)nc2n1CC(=O)Nc1ccc(C(F)(F)F)cc1Cl` [WO2025049746, Example 35], the IC50 in experiment [1] stood at 130 nM; in experiment [2], 68.4 nM.

Take `CCc1c(N2CCN(C(=O)c3nccc(C)c3N)CC2)c(=O)n2nc(C3=CCOCC3)nc2n1CC(=O)Nc1ccc(C(F)(F)F)cc1Cl` [WO2025049746, Example 36]: the half-inhibitory concentration (IC50) in experiment [1] is 42.9 nM; in experiment [2] it was 38.3 nM.

With `CCc1c(N2CCN(C(=O)c3ncccc3N=S3(=O)CCC3)CC2)c(=O)n2nc(C3=CCOCC3)nc2n1CC(=O)Nc1ccc(C(F)(F)F)cc1Cl` [WO2025049746, Example 37], the results for the IC50 in experiment [1] and in experiment [2] were 86.3 nM and 56.2 nM, respectively.

As for `CCc1c(N2CCN(C(=O)c3ccccc3NS(C)(=O)=O)CC2)c(=O)n2nc(C3=CCOCC3)nc2n1CC(=O)Nc1ccc(C(F)(F)F)cc1Cl` [WO2025049746, Example 38], the results for the IC50 in experiment [1] and in experiment [2] were 70.8 nM and 60.3 nM, respectively.

As to `CCc1c(N2CCN(C(=O)c3ccccc3NS(=O)(=O)C3CC3)CC2)c(=O)n2nc(C3=CCOCC3)nc2n1CC(=O)Nc1ccc(C(F)(F)F)cc1Cl` [WO2025049746, Example 39], the IC50 in experiment [1] is 45.7 nM; in experiment [2], 33 nM.

`CCc1c(N2CCN(C(=O)c3ncnc(C)c3O)CC2)c(=O)n2nc(-c3cncc4c3CCOC4)nc2n1CC(=O)Nc1ccc(C(F)(F)F)cc1Cl` [WO2025049746, Example 163] displayed an IC50 in experiment [1] of 29700 nM. This counts as double-digit micromolar.

With `CCc1c(N2CCN(C(=O)c3ncnc(C)c3O)CC2)c(=O)n2nc(-c3ccc4c(c3C)COC4)nc2n1CC(=O)Nc1ccc(C(F)(F)F)cc1Cl` [WO2025049746, Example 196], in experiment [1], it took 9990 nM to reach half-maximal inhibition (IC50). Against the preceding molecule, the IC50 is about 3-fold lower.

The molecule `CCc1c(N2CCN(C(=O)c3ncnc(C)c3O)CC2)c(=O)n2nc(-c3cc(OC)c(OC)c(OC)c3)nc2n1CC(=O)Nc1ccc(C(F)(F)F)cc1Cl` [WO2025049746, Example 268] registered an IC50 in experiment [1] of 29700 nM. This IC50 lies about 3-fold higher than the previous one.

With `CCc1c(N2CC3CCN(C(=O)c4ncnc(C)c4O)CC32)c(=O)n2nc(C3=CCOCC3)nc2n1CC(=O)Nc1ccc(C(F)(F)F)cc1Cl` (stereo not given) [WO2025049746, Example 346], the half-inhibitory concentration (IC50) in experiment [1] was 29700 nM.

For the molecule `CCc1c(N2CCN(C(=O)c3ncnc(C)c3O)CC2)c(=O)n2nc(C3=CCOCC3)nc2n1CC(=O)NC12CC(C34CC(C(C)(F)F)(C3)C4)(C1)C2` [WO2025049746, Example 354], the half-maximal inhibitory concentration (IC50) in experiment [1] was 29700 nM. This lies in the double-digit micromolar range.

As for `CCc1c(N2CCN(C(=O)c3ncnc(C)c3O)CC2)c(=O)n2nc(C3=CCOCC3)nc2n1CC(=O)NC12CCC(C(F)(F)F)(CC1)OC2` [WO2025049746, Example 358], the IC50 in experiment [1] was found to be 29700 nM.

`CCc1c(N2CCN(C(=O)C3CCOCC3)CC2)c(=O)n2nc(-c3ccnc(O)n3)nc2n1CC(=O)Nc1ccc(C(F)(F)F)cc1Cl` [WO2025049746, Example 431] came in with a 50% inhibitory concentration (IC50) in experiment [1] of 29700 nM.

The values are drawn from BindingDB's records for patent WO2025049746 (Eikon Therapeutics, 2025).
